Experimental data published in article PMC6689897, “Drugging an undruggable pocket on KRAS” (Proceedings of the National Academy of Sciences of the …, 2019).

Key:
GTP-KRASG12D::SOS1 = GTP-KRASG12D::SOS1 (Homo sapiens, UniProt P01116, G12D); test: Alpha Screen PPI assay; assay type: biochemical; settings: duplicate
Procedure: page 6: 217 The coordinates and structure factors of the structures have been deposited at the 218 Protein Data Bank with the accession codes PDB Code 6GJ5, 6GJ6, 6GJ7, 6GJ8. 219 220 Alpha Screen Assays 221 Measurements of various protein-protein interactions were performed using the Alpha 222 Screen technology developed by Perkin Elmer. Recombinant RAS proteins (H-, […] RAS variants; all KRAS variants are based on KRAS isoform 4B (uniprot id P01116-2); 224 KRAS (G12D) 1-169, N-terminal 6His-tag, C-terminal avi-tag was from Xtal 225 BioStructures, Inc., KRAS (G12C) 1-169, C-terminal avi-tag, biotinylated, mutations: 226 C51S, C80L, C118S, NRAS(wt) 1-172, C-terminal avi-tag, biotinylated; HRAS(wt) 1- 227 166, C-terminal avi-tag, biotinylated). Biotinylation was performed in vitro with 228 recombinant BirA biotin-protein ligase as recommended by the manufacturer (Avidity 229 LLC, Aurora, Colorado, USA). Interacting proteins such as SOS1 (564-1049, N-terminal 230 GST-tag, TEV cleavage site), cRaf (1-303, N-terminal GST-tag, TEV cleavage site) and 231 PI3KA- RBD (160-317, N-term-HIS_GST-tag) were expressed as glutathione S 232 transferase (GST) fusions. […] Single oxygen induced fluorescence was 246 measured at an Enspire multimode plate reader (Perkin Elmer) according to the 247 manufacturer's recommendations. Data were analyzed using the GraphPad Prism data 248 software. […]

NCI-H358 cells = test: RAS GTP detection (Ras G-LISA activation assay); assay type: cell-based, human; settings: for steady-state RAS GTP levels: high growth factor conditions; for formation of GTP-loaded KRAS / RAS GTP levels: starved 24 h low serum, 2 h compound, then EGF
Procedure: When we incubated NCI-H358 cells with 50 µM 1 for 1 h, as previously observed, no change in GTP-KRAS was observed. In contrast, 20 µM ARS-1620 caused an 80% reduction of the GTP-bound RAS pool. When the 2 compounds were combined, only a 30% reduction of GTP-RAS was observed, which is in line with inhibiting the binding of GAPs with KRAS (Fig. 6D). […]
332 RAS GTP detection (Ras G-LISA Activation assay):
333 Ras-GTP levels were analyzed using a Ras G-LISA assay kit (Cytoskeleton Inc.,
335 600.000 cells were seeded in 6 wells and grown to 70% confluence. Cells were washed
337 provided protease inhibitor cocktail. Lysates were quickly frozen in liquid nitrogen
338 and stored at -80°C until further usage. After normalizing protein concentration, 40µg
339 of protein was added in duplicates to wells of the Ras G-LISA plate coated with Ras
340 GTP-binding protein and incubated at 4°C for 30 minutes while shaking at 400rpm.
341 After washing, antigen presenting buffer was added for 2 minutes. To measure bound
342 Ras GTP levels, wells were subsequently incubated with an anti-Ras primary antibody
343 (1:50) followed by a HRP-labeled secondary antibody (1:500) and finally by adding a
344 HRP detection reagent. Absorbance was measured by 490nm using an EnSpire
345 Multimode Reader (Perkin Elmer). Background was determined by a negative control
346 well and subtracted from all samples. […]

GTP-KRASG12D::SOS1, sequence (P01116 1-169 isoform P01116-2 G12D): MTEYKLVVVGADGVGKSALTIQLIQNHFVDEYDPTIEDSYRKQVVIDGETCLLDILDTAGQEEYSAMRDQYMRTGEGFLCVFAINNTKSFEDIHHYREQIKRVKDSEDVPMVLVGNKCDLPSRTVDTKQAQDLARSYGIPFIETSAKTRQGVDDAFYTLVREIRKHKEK

Structure (SMILES)	IC50 (GTP-KRASG12D::SOS1) [nM]	reduction of the GTP-bound RAS pool (NCI-H358 cells; 20 µM ARS-1620) [%]	steady-state RAS GTP levels (NCI-H358 cells)	formation of GTP-loaded KRAS / RAS GTP levels (NCI-H358 cells)	reduction of GTP-RAS (NCI-H358 cells; 50 µM 1 combined with 20 µM ARS-1620) [%]	change in GTP-KRAS (NCI-H358 cells; 50 µM 1 for 1 h)
C=CC(=O)N1CCN(c2ncnc3c(F)c(-c4c(O)cccc4F)c(Cl)cc23)CC1 [ARS-1620, reference compound]	> 10000	80	strongly reduced	reduced the RAS GTP levels even below the DMSO control		
Cn1cnc(Cn2ccc3ccc(CNCc4[nH]c5ccccc5c4[C@H]4NC(=O)c5ccc(O)cc54)cc32)c1 [Compound 1]	490		does not change	dose-dependent inhibition	30	no change
